Laboratory results published in US10717716B2, “1,3,4-oxadiazole derivative compounds as histone deacetylase 6 inhibitor, and the pharmaceutical composition comprising the same” (Chong Kun Dang Pharmaceutical Corp., priority 2015, dated 2020).

Target: T1, human recombinant HDAC6 (Homo sapiens, UniProt Q9UBN7)
T1 construct: purchased Calbiochem 382180
T1 sequence (Q9UBN7 1-1215): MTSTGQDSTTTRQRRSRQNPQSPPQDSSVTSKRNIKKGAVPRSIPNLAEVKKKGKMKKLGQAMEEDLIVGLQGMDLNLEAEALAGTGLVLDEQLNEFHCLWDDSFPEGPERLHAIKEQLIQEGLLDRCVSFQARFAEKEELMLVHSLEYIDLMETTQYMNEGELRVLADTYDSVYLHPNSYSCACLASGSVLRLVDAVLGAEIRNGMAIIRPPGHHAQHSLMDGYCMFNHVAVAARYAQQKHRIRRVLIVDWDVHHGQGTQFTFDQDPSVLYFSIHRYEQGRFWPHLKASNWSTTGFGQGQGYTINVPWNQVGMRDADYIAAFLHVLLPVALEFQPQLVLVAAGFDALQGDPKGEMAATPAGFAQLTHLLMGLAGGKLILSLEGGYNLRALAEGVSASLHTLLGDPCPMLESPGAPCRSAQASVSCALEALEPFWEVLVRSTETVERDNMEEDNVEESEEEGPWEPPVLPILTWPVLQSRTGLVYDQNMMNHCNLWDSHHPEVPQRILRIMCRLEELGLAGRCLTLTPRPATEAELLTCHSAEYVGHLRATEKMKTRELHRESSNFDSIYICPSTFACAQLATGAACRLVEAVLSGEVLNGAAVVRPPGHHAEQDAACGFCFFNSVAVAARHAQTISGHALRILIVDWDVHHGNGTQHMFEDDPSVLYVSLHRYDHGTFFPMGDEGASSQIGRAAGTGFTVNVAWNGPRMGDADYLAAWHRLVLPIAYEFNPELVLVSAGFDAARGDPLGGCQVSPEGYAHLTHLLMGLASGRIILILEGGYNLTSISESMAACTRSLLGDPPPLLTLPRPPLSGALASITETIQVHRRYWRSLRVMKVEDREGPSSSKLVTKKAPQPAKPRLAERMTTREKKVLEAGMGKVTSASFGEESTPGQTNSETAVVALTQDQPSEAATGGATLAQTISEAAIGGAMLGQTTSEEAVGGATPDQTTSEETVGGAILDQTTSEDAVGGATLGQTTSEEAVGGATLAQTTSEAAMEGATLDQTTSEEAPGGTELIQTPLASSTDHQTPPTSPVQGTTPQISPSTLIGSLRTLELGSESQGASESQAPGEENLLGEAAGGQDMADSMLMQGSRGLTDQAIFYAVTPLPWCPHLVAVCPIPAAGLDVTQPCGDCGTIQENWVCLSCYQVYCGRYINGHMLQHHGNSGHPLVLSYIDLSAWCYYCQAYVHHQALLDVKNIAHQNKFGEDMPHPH
Test: HDAC6 enzyme activity inhibition assay (HDAC Fluorimetric Drug Discovery Kit)
Assay type: biochemical
Settings: for HDAC6 selectivity (fold): HDAC6 over HDAC1; for IC50: human recombinant HDAC6, same protocol as HDAC1, read-out: HDAC6
Summary of the method: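 Fluorimetric deacetylase assay: 5-fold serial compound dilutions, 0.3 μg recombinant human enzyme (HDAC1 or HDAC6, same protocol), 10 μM Fluor de Lys-SIRT1 substrate, 60 min at 30 °C. Signal developed 30 min, measured at 360/460 nm; IC50 values derived.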

Structure (SMILES)	HDAC6 selectivity (fold)	IC50 [nM]
O=C(N1CCS(=O)(=O)CC1)N(Cc1ccc(-c2nnc(C(F)F)o2)cc1F)c1ccc(CN2CCC(F)(F)C2)cc1 [Compound 21915, N-(4-(5-(difluoromethyl)-1,3,4-oxadiazol-2-yl)-2-fluorobenzyl)-N-(4-((3,3-difluoropyrrolidin-1-yl)methyl)phenyl)thiomorpholine-4-carboxamide 1,1-dioxide]	62	160
O=C(N1CCS(=O)(=O)CC1)N(Cc1ccc(-c2nnc(C(F)F)o2)cc1F)c1ccc(CN2CCC(F)(F)CC2)cc1 [Compound 21916, N-(4-(5-(difluoromethyl)-1,3,4-oxadiazol-2-yl)-2-fluorobenzyl)-N-(4-((4,4-difluoropiperidin-1-yl)methyl)phenyl)thiomorpholine-4-carboxamide 1,1-dioxide]	43	232
CN(C)[C@@H]1CCN(Cc2ccc(N(Cc3ccc(-c4nnc(C(F)F)o4)cc3F)C(=O)N3CCS(=O)(=O)CC3)cc2)C1 [Compound 21917, (R)—N-(4-(5-(difluoromethyl)-1,3,4-oxadiazol-2-yl)-2-fluorobenzyl)-N-(4-((3-(dimethylamino)pyrrolidin-1-yl)methyl)phenyl)thiomorpholine-4-carboxamide 1,1-dioxide]	151	66
O=C(N1CCS(=O)(=O)CC1)N(Cc1ccc(-c2nnc(C(F)F)o2)cc1F)c1ccc(CN2CCOCC2)cc1 [Compound 21918, N-(4-(5-(difluoromethyl)-1,3,4-oxadiazol-2-yl)-2-fluorobenzyl)-N-(4-(morpholinomethyl)phenyl)thiomorpholine-4-carboxamide 1,1-dioxide]	52	193
O=C(N1CCS(=O)(=O)CC1)N(Cc1ccc(-c2nnc(C(F)F)o2)cc1F)c1ccc(CN2CCCCC2)cc1 [Compound 21919, N-(4-(5-(difluoromethyl)-1,3,4-oxadiazol-2-yl)-2-fluorobenzyl)-N-(4-(piperidin-1-ylmethyl)phenyl)thiomorpholine-4-carboxamide 1,1-dioxide]	28	357
O=C(N1CCS(=O)(=O)CC1)N(Cc1ccc(-c2nnc(C(F)F)o2)cc1F)c1ccc(OC2CCN(Cc3ccccc3)CC2)cc1 [Compound 21924, N-(4-((1-benzylpiperidin-4-yl)oxy)phenyl)-N-(4-(5-(difluoromethyl)-1,3,4-oxadiazol-2-yl)-2-fluorobenzyl)thiomorpholine-4-carboxamide 1,1-dioxide]	47	213
C[C@@H]1CN(Cc2ccccc2)C[C@H](C)N1Cc1ccc(N(Cc2ccc(-c3nnc(C(F)F)o3)cc2F)C(=O)N2CCS(=O)(=O)CC2)cc1 [Compound 21925]	12	829
C[C@@H]1CN(Cc2ccc(N(Cc3ccc(-c4nnc(C(F)F)o4)cc3F)C(=O)N3CCS(=O)(=O)CC3)cc2)C[C@H](C)N1Cc1ccccc1 [Compound 21926]	28	356
O=C(N1CCOCC1)N(Cc1ccc(-c2nnc(C(F)F)o2)cc1F)c1ccc(F)c(Cl)c1 [Compound 21929, N-(3-chloro-4-fluorophenyl)-N-(4-(5-(difluoromethyl)-1,3,4-oxadiazol-2-yl)-2-fluorobenzyl)morpholine-4-carboxamide]	176	57
O=C(N1CCOCC1)N(Cc1ccc(-c2nnc(C(F)(F)F)o2)cc1F)C12CC3CC(CC(C3)C1)C2 [Compound 21931, N-((3s,5s,7s)-adamantan-1-yl)-N-(2-fluoro-4-(5-(trifluoromethyl)-1,3,4-oxadiazol-2-yl)benzyl)morpholine-4-carboxamide]	6	1740
O=C(N1CCOCC1)N(Cc1ccc(-c2nnc(C(F)F)o2)cc1F)CC12CC3CC(CC(C3)C1)C2 [Compound 21932, N-(((3r,5r,7r)-adamantan-1-yl)methyl)-N-(4-(5-(difluoromethyl)-1,3,4-oxadiazol-2-yl)-2-fluorobenzyl)morpholine-4-carboxamide]	15	684
O=C(N1CCOCC1)N(Cc1ccc(-c2nnc(C(F)(F)F)o2)cc1F)CC12CC3CC(CC(C3)C1)C2 [Compound 21933, N-(((3r,5r,7r)-adamantan-1-yl)methyl)-N-(2-fluoro-4-(5-(trifluoromethyl)-1,3,4-oxadiazol-2-yl)benzyl)morpholine-4-carboxamide]	4	2410
CCN1C[C@@H](C)N(Cc2ccc(N(Cc3ccc(-c4nnc(C(F)F)o4)cc3F)C(=O)N3CCS(=O)(=O)CC3)cc2)[C@@H](C)C1 [Compound 21934, N-(4-(5-(difluoromethyl)-1,3,4-oxadiazol-2-yl)-2-fluorobenzyl)-N-(4-(((2R,6S)-4-ethyl-2,6-dimethylpiperazin-1-yl)methyl)phenyl)thiomorpholine-4-carboxamide 1,1-dioxide]	15	667
CCN1[C@H](C)CN(Cc2ccc(N(Cc3ccc(-c4nnc(C(F)F)o4)cc3F)C(=O)N3CCS(=O)(=O)CC3)cc2)C[C@@H]1C [Compound 21935, N-(4-(5-(difluoromethyl)-1,3,4-oxadiazol-2-yl)-2-fluorobenzyl)-N-(4-(((3S,5R)-4-ethyl-3,5-dimethylpiperazin-1-yl)methyl)phenyl)thiomorpholine-4-carboxamide 1,1-dioxide]	38	265
O=C(N1CCN(C2COC2)CC1)N(Cc1ccc(-c2nnc(C(F)F)o2)cc1)c1cccc(F)c1 [Compound 21936, N-(4-(5-(Difluoromethyl)-1,3,4-oxadiazol-2-yl)benzyl)-N-(3-fluorophenyl)-4-(oxetan-3-yl)piperazine-1-carboxamide]	91	110
O=C(N1CCN(C2COC2)CC1)N(Cc1ccc(-c2nnc(C(F)F)o2)cc1F)c1cccc(F)c1 [Compound 21937, N-(4-(5-(Difluoromethyl)-1,3,4-oxadiazol-2-yl)-2-fluorobenzyl)-N-(3-fluorophenyl)-4-(oxetan-3-yl)piperazine-1-carboxamide]	153	65
O=C(N1CCN(C2COC2)CC1)N(Cc1ccc(-c2nnc(C(F)F)o2)cn1)c1cccc(F)c1 [Compound 21938, N-((5-(5-(Difluoromethyl)-1,3,4-oxadiazol-2-yl)pyridin-2-yl)methyl)-N-(3-fluorophenyl)-4-(oxetan-3-yl)piperazine-1-carboxamide]	122	82
O=C(N1CCN(C2COC2)CC1)N(Cc1ccc(-c2nnc(C(F)F)o2)cc1)c1ccc(F)cc1 [Compound 21939, N-(4-(5-(Difluoromethyl)-1,3,4-oxadiazol-2-yl)benzyl)-N-(4-fluorophenyl)-4-(oxetan-3-yl)piperazine-1-carboxamide]	62	161
O=C(N1CCN(C2COC2)CC1)N(Cc1ccc(-c2nnc(C(F)F)o2)cc1F)c1ccc(F)cc1 [Compound 21940, N-(4-(5-(Difluoromethyl)-1,3,4-oxadiazol-2-yl)-2-fluorobenzyl)-N-(4-fluorophenyl)-4-(oxetan-3-yl)piperazine-1-carboxamide]	118	85
O=C(N1CCN(C2COC2)CC1)N(Cc1ccc(-c2nnc(C(F)F)o2)cc1)c1cccc(Cl)c1 [Compound 21942, N-(3-Chlorophenyl)-N-(4-(5-(difluoromethyl)-1,3,4-oxadiazol-2-yl)benzyl)-4-(oxetan-3-yl)piperazine-1-carboxamide]	160	62
O=C(N1CCN(C2COC2)CC1)N(Cc1ccc(-c2nnc(C(F)F)o2)cn1)c1cccc(Cl)c1 [Compound 21944, N-(3-Chlorophenyl)-N-((5-(5-(difluoromethyl)-1,3,4-oxadiazol-2-yl)pyridin-2-yl)methyl)-4-(oxetan-3-yl)piperazine-1-carboxamide]	201	50
